The test system of assay [1] is vascular lesion in the right middle frontal gyrus. The conditions noted are these: general comparison statement in Example 14, no own test described; cited from earlier work.
Assay [2] concerns Grade 4 Atypical Teratoid Rhabdoid Tumor (ATRT) in the posterior fossa/brain stem. The assay is described as follows: Intraoperative NIR fluorescence imaging of tozuleristide during pediatric brain tumor resection. The format is in vivo, human. The conditions noted are these: Subject T613, 15 mg/m2 IV bolus about 13.5 hours prior to surgery. As to the method:
This example describes use of the imaging system and/or method disclosed herein for coaxial illumination and visualization of tozuleristide fluorescence during surgical resection of a pediatric brain tumor. The imaging system of the present invention was used to image brain tissue to detect a cancer using fluorescence imaging. Surgery was performed to remove cancer from the subject.
Subject T613 was diagnosed with a Grade 4 Atypical Teratoid Rhabdoid Tumor (ATRT) in the posterior fossa/brain stem. Tozuleristide which is a peptide-fluorophore detectable agent (15 mg/m2 dose), was given by intravenous (IV) bolus injection about 13.5 hours prior to the start of surgery. The imaging head was attached to the Zeiss Pentero surgical microscope along with two eyepieces prior the start of surgery.
After the tumor was exposed, the imaging system was initialized and used continuously. The imaging system enabled the surgeon to view fluorescence and visible imaging together and simultaneously with the operating microscope. […] Moreover, there was no need to reposition the operating microscope to view the fluorescence and visible images thus providing imaging of the surgical area together with the fluorescence imaging system during the operation, which decreased disruption to the surgical workflow.
Video was captured for the duration of the tumor resection, and still images were captured of the exposed tumor. […] FIGS. 15A-15F show images taken from the tumor resection with the near-infrared (NIR) fluorescence images of the tumor using the imaging system (FIGS. 15B and 15E) and the overlay image with the NIR fluorescence overlaid with the white light or visible light spectrum illumination (FIGS. 15C and 15F). […] In the overlay image, the normal brain tissue appeared red, as it does under normal visible light or white light as shown the visible light images of the tumor (FIGS. 15A and 15D). The surgeon noted that only tumor tissue appeared fluorescent.

Assay [3] concerns vascular lesion in the right middle frontal gyrus. The assay is described as follows: Intraoperative NIR fluorescence imaging of tozuleristide during resection of a vascular lesion (arteriovenous or cavernous malformation). The format is in vivo, human. As to conditions: for Fluorescence of surrounding tissue, normal brain tissue and normal vasculature / Fluorescence of the abnormal vascular tissue / vascular lesion: pediatric subject, 22 mg (15 mg/m^2) IV approximately 5-6 hours before surgery, NIR fluorescence; for Fluorescence of the abnormal vascular tissue / vascular lesion: in situ. As for the experimental part: This example describes use of the imaging system and/or methods disclosed herein for coaxial illumination and visualization of tozuleristide fluorescence during surgical resection of an arteriovenous malformation or cavernous malformation in a pediatric patient. The imaging system of the present invention was used to image brain tissue to detect abnormal vasculature using fluorescence imaging. Surgery was performed to remove the abnormality from the subject.
A pediatric subject with a history of anosmia was found on MRI to have a 3.5 cm T1-hypointense, T2/FLAIR-hyperintense mass in the right middle frontal gyrus with a central enhancing nodule, initially diagnosed pre-operatively to be a low-grade glioma. […] The patient received 22 mg (15 mg/M^2) of tozuleristide via IV injection approximately 5-6 hours before surgery and image collection. The imaging system head was attached to the Zeiss Pentero surgical microscope along with two eyepieces prior the start of surgery.
After the lesion was exposed, the imaging system was initialized and used continuously. The imaging system enabled the surgeon to view fluorescence and visible imaging together and simultaneously with the operating microscope. A microsurgical resection was performed through a right frontal craniotomy. […] The abnormal tissue was completely resected. The patient recovered without deficit. Pathology confirmed the absence of tumor.
Video was captured for the duration of the resection, and still images were captured of the exposed lesion. […] FIGS. 18 and 19 show images taken from the vascular lesion with the near-infrared (NIR) fluorescence images of the vascular lesion using the imaging system. […] In the overlay image, the normal brain tissue and normal blood vessels appeared pink or light tan to red, as it does under normal visible light or white light. The surgeon noted that only the abnormal vascular tissue appeared fluorescent.

Assay [4] concerns cerebral cavernous malformation in the left cerebellar hemisphere. As to the kind of experiment: Intraoperative NIR fluorescence imaging of tozuleristide during cavernous malformation resection. The format is in vivo, human. As to conditions: pediatric patient; 15 mg/m2 IV on the morning of surgery. As to the method:
This example describes use of the compounds and methods disclosed herein for coaxial illumination and visualization of tozuleristide fluorescence during surgical resection of a cavernous malformation in a pediatric patient. An imaging system was used to image brain tissue to detect abnormal vasculature using fluorescence imaging. Surgery was performed to remove the abnormality from the subject.
The patient received 15 mg/m2 of a fluorescent conjugate comprising SEQ ID NO: 1 conjugated to an ICG (tozuleristide, also referred to herein as Compound 76) via IV injection on the morning of surgery and image collection. The imaging system head was attached to the Zeiss Pentero surgical microscope along with two eyepieces prior the start of surgery.
After the lesion was exposed, the imaging system was initialized and used continuously. The imaging system enabled the surgeon to view fluorescence and visible imaging together and simultaneously with the operating microscope. A microsurgical resection was performed through a left retroaricular craniotomy with frameless stereotactic navigation and intraoperative ultrasonography. A round mulberry appearing vascular lesion that contained areas of thrombosed vessels and firm calcifications was encountered. […] The lesion was removed. […]

Consider `CC1(C)C(/C=C/C=C/C=C/C=C2\N(CCCCS(=O)(=O)O)c3ccc4ccccc4c3C2(C)C)=[N+](CCCCS(=O)(=O)[O-])c2ccc3ccccc3c21` [ICG, indocyanine green], for which, in assay [1], the “Behaviour of ICG alone after injection (comparison statement)” value is listed as “transiently lights up blood vessels immediately after injection”.
Regarding tozuleristide, the “Surgeon-noted distinction between tumor and normal tissue with NIR fluorescence” value in assay [2] was “very good distinction between tumor and normal tissue fluorescence”. Moreover, the “Background fluorescence in non-tumor or normal brain tissue” value in assay [2] (NIR fluorescence image) is reported as “no discernable background fluorescence”. Further, the “Tozuleristide fluorescence in the exposed tumor” value in assay [2] (NIR fluorescence, in situ) is listed as “observed in situ in the exposed tumor”. In addition, the “Time after injection during which diseased tissue can be highlighted” value in assay [3] (general statement in Example 14, fluorescence dependent on pathological tissue binding and uptake) is “up to 30 hours”. Moreover, in assay [3], the “Fluorescence of surrounding tissue, normal brain tissue and normal vasculature” value (from here on “Fluorescence of surrounding tissue”) is reported as “non-fluorescent”; the “Fluorescence of the abnormal vascular tissue / vascular lesion” value is given as “indicative of the presence of tozuleristide in the vascular lesion”. For the same compound, in assay [3] (listed as Tozuleristide), the “Fluorescence of the abnormal vascular tissue / vascular lesion” value is “observed in situ in the exposed vascular lesion”; the “Fluorescence of surrounding tissue” value is “no discernable background fluorescence”. In assay [3] (listed as toluzeristide), the “Fluorescence of the abnormal vascular tissue / vascular lesion” value is recorded as “fluoresced avidly”; the “Fluorescence of surrounding tissue” value is listed as “no fluorescence”. In addition, in assay [4], the “Fluorescence of the cavernous malformation lesion” value is given as “fluoresced avidly” and the “Fluorescence of the surrounding cerebellum” value is given as “did not fluoresce”.
